According to patent US10458996B1, “Methods for determining clinical response to TNF-alpha and/or JAK inhibitors in subjects with inflammatory diseases” (Beth Israel Deaconess Medical Center, Inc., priority 2016, dated 2019):

Legend:
[1] = system: patients with moderate-to-severe CD; conditions: week 24 of intervention; cited from earlier work
[2] = system: biopsy samples from patients with IBD; experiment: Cytokine profiles of patient biopsy cultures in response to treatment with various agents (Example 2); assay type: cell-based, human
Description: From each patient, intestinal mucosal biopsies were minced into several pieces and distributed in 8 wells of a 96-well plate in 250 μl of Dulbecco's Modified Eagle Medium (DMEM) supplemented with 10% FBS and antibiotic-antimycotic (Life Technologies, CA). Half of the cultures were treated with infliximab (REMICADE®; 0.5 mg/ml; Janssen Biotech, Inc, NJ) and the plate was incubated at 37° C. in a humidified chamber of 95% O2/5% CO2 for 18 hours. Culture supernatants were collected, filtered and stored at −80° C. […] Signal detection and analysis was performed by MAGPIX® (Luminex Corporation, TX).
[…] with 0.5 mg/ml infliximab (an anti-TNFα antibody; therapeutic agent), 100 μM tofacitinib (a Janus kinase (JAK) inhibitor) and an experimental drug (at 10 μM concentration) in accordance with the protocol described above. Following treatment, biopsy samples were obtained and analyzed for cytokine profiles using […].
Additional similar experiments were conducted for different patients using the same or different therapeutic agents, and the results are shown in FIG. 5D-5H.

SMILES | Mucosal healing rates [1] [%] | cytokines with levels significantly elevated ([2]; 100 μM, non-responder group (FIG. 5B)) | cytokines with attenuation in levels ([2]; 100 μM, non-responders (FIG. 5B)) | cytokines with levels significantly attenuated ([2]; 100 μM, responders (FIG. 5B)) | changes in cytokine profile ([2]; patient ID 13-394 (FIG. 5E)) | ex vivo response of patient ([2]; patient ID 13-394 (FIG. 5E))
Cn1cnc([N+](=O)[O-])c1Sc1ncnc2nc[nH]c12 [azathioprine] | 16.5 |  |  |  |  | 
C[C@@H]1CCN(C(=O)CC#N)C[C@@H]1N(C)c1ncnc2[nH]ccc12 [tofacitinib] |  | IL-12p40, IL-12p70, IL-13, IL-17A, IL-2, IL-4, IL-5, and IL-7 | MCP-1 and TNFα | IL-6, IL-8, MCP-1, and TNFα | three cytokine expression down-regulation | ex vivo responder
